Values of other authors in patent US20160095850A1, “METHODS AND COMPOSITIONS FOR TREATMENT OF HIV INFECTION” (COOPER HUMAN SYSTEMS LLC, priority 2013, published 2016).

How the values were obtained:
[1] = human, in vivo
[2] = test system: HDAC activity in HeLa extracts; details: read-out: IC50 for inhibition of HDAC activity
[3] = test system: A549 cells; details: read-out: EC50, dose-dependent increase in acetylated histone levels
[4] = molecular target: HDAC3 (Homo sapiens, UniProt O15379)
[5] = molecular target: T1, HDAC8 (Homo sapiens, UniProt Q9BY41)
T1 sequence (Q9BY41 1-377): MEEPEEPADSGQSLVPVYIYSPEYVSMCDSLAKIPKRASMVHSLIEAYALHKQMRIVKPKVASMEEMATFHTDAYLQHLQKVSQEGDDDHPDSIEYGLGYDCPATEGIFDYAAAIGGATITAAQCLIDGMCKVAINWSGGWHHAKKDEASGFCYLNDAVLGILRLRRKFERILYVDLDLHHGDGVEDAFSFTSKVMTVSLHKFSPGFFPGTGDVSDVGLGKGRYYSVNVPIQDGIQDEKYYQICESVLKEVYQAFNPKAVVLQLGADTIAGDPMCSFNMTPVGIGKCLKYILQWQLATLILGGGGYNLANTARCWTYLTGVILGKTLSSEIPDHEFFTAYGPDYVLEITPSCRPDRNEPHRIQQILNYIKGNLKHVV

[6] = test system: other HDAC members
[7] = test system: HIV-RNA in resting CD4 T cells; details: single dose of 400 mg
[8] = test system: HIV RNA expression in CD4 T cells
[9] = test system: CD8 T(EM) cells

Chain of HDAC3 (O15379 whole entry): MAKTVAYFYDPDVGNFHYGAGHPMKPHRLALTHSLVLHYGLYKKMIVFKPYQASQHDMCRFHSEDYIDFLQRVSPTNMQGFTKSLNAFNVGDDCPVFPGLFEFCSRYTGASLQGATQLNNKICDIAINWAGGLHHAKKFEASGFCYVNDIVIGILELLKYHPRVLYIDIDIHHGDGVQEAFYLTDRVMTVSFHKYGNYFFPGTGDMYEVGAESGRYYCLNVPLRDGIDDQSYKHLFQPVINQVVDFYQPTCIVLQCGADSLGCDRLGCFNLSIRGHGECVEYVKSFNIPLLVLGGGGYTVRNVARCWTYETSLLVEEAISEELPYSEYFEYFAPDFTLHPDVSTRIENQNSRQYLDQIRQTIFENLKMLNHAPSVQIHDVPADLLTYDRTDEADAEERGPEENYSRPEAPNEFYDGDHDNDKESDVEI
Chain of HDAC3 (Q9Y618 395-489 partner limits assumed): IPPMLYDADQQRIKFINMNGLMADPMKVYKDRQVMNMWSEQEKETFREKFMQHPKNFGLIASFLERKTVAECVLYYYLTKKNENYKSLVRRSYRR

Q: With `NCCCCN(Cc1nc2ccccc2[nH]1)[C@H]1CCCc2cccnc21` [AMD070] as the molecule, how does the “median estimated terminal half-life” value [1] read?
A: 7.6 to 12.6 h

Q: With `Nc1ccccc1NC(=O)CCCCCCC(=O)Nc1ccccc1` [BML-210] as the molecule, how does the IC50 [2] read?
A: 80 µM

Q: And the EC50 [3]?
A: 36 µM

Q: For `Cc1cc(Cl)ccc1OCCCC(=O)NO` [Droxinostat], which IC50 [4] is on record?
A: 16.9 µM

Q: What about the IC50 [5] of the same molecule?
A: 1.46 µM

Q: What about the IC50 [6] of the same molecule?
A: > 20 µM

Q: With `O=C(CCCCCCC(=O)NO)NO` [SBHA, Suberohydroxamic acid] as the molecule, how does the IC50 [4] read?
A: 0.3 µM

Q: Which “evaluated subjects with significantly increased expression of HIV-RNA in isolated resting CD4 T cells” value [7] does the source give for `O=C(CCCCCCC(=O)Nc1ccccc1)NO` [Vorinostat, suberoylanilide hydroxamic acid] here?
A: 8 of 8

Q: And the “course of the induction of HIV RNA” value [8]?
A: transient and diminished after 24 hours

Q: What does the source list for “IL-15: cytokine promoting activation and maintenance of NK and CD8 T effector memory cells”?
A: expansion of CD8 T(EM) cells in the peripheral blood ([9]; 20 μg/kg/d by continuous intravenous infusion for 10 days): 100 fold; expansion of CD8 T(EM) cells ([9]; 20-40 μg/kg/d by subcutaneous injection): 10 fold
